According to ChEMBL document CHEMBL4823243, “Synergistic induction of apoptosis in resistant head and neck carcinoma and leukemia by alkoxyamide-based histone deacetylase inhibitors” (Eur J Med Chem, 2021):
Activity calls are given as the source filed them. The calls are words filed in the database; no cut-off is given here.

How the values were obtained:
Histone deacetylase [1] = experiment: Inhibition of HDAC in human A2780 cells using Boc-Lys (acetyl)-AMC as substrate preincubated for 18 hrs followed by susbtrate addition and measured after 3 hrs by fluorescence microplate reader assay; type: cell-based
Histone deacetylase [2] = experiment: Inhibition of HDAC in human CAL-27 cells using Boc-Lys (acetyl)-AMC as substrate preincubated for 18 hrs followed by susbtrate addition and measured after 3 hrs by fluorescence microplate reader assay; type: cell-based
A2780 = experiment: Antiproliferative activity against human A2780 cells assessed as reduction in cell viability after 72 hrs by MTT assay; type: functional, cell-based; details: A2780, 72 h
CAL-27 = experiment: Antiproliferative activity against human CAL-27 cells assessed as reduction in cell viability after 72 hrs by MTT assay; type: functional, cell-based; details: CAL-27, 72 h
[3] = Inhibition of Class 1/2b HDAC in human HL-60 cells by HDAC-Glo assay; type: cell-based
HL-60 = experiment: Antiproliferative activity against human HL-60 cells assessed as reduction in cell viability for 72 hrs by Celltitre-Glo luminescent assay; type: functional, cell-based; details: HL-60, 72 h
Histone deacetylase 2 = Histone deacetylase 2 (Homo sapiens, UniProt Q92769); experiment: Inhibition of recombinant human full length C-terminal GST-fusion tagged HDAC2 expressed in baculovirus infected insect cells using Boc-Lys(Ac)-AMC as substrate preincubated for 5 mins followed by substrate addition measured after 90 mins by fluorimetry; type: cell-based
Histone deacetylase 4 = Histone deacetylase 4 (Homo sapiens, UniProt P56524); experiment: Inhibition of recombinant human N-terminal GST-fusion tagged/C-terminal GST-tagged HDAC4 (627 to 1084 residues) expressed in baculovirus infected insect cells using Boc-Lys(TFA)-AMC as substrate preincubated for 5 mins followed by substrate addition measured after 90 mins by fluorimetry
[4] = biological target: T1, Protein deacetylase HDAC6 (Homo sapiens, UniProt Q9UBN7); experiment: Inhibition of recombinant human N-terminal GST-tagged HDAC6 (1 to 1215 residues) expressed in baculovirus infected insect cells using Boc-Lys(Ac)-AMC as substrate preincubated for 5 mins followed by substrate addition measured after 90 mins by fluorimetry
T1 sequence (Q9UBN7 whole entry): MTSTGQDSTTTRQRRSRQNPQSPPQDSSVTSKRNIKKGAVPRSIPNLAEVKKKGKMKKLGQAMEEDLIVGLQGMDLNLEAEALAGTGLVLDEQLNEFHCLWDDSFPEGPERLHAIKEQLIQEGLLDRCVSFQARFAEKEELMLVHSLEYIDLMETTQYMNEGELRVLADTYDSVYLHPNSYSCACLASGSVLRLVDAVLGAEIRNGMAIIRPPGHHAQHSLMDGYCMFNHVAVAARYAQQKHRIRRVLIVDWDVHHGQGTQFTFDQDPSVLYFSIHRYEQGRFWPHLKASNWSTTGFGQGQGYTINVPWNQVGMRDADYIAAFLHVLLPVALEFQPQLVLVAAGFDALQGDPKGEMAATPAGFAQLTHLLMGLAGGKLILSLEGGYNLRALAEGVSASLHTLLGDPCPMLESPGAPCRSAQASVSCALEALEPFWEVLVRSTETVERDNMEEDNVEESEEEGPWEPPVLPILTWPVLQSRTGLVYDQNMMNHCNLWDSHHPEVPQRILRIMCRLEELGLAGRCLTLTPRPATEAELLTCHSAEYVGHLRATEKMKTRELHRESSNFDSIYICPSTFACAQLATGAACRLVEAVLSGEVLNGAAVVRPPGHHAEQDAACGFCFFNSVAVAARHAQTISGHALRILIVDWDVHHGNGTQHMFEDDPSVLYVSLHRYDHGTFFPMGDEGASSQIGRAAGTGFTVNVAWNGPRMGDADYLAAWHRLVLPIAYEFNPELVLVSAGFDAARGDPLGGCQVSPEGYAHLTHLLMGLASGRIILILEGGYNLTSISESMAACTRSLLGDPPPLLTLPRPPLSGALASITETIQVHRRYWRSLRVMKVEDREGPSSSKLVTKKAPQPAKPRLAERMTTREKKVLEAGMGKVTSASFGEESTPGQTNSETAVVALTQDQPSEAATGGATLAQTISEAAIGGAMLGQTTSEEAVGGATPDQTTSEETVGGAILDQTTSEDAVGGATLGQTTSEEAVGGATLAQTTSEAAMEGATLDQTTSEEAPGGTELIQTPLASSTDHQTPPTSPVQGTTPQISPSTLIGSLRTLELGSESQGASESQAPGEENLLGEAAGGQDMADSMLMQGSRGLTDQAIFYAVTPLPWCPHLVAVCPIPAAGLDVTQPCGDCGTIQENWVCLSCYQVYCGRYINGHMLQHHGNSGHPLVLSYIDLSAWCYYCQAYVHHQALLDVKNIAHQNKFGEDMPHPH

Histone deacetylase 8 = biological target: T2, Histone deacetylase 8 (Homo sapiens, UniProt Q9BY41); experiment: Inhibition of recombinant human C-terminal His-fusion tagged/N-terminal Strep2 tagged HDAC8 (1 to 377 residues) expressed in insect cells using Boc-Lys(TFA)-AMC as substrate preincubated for 5 mins followed by substrate addition measured after 90 mins by fluorimetry
T2 sequence (Q9BY41 whole entry): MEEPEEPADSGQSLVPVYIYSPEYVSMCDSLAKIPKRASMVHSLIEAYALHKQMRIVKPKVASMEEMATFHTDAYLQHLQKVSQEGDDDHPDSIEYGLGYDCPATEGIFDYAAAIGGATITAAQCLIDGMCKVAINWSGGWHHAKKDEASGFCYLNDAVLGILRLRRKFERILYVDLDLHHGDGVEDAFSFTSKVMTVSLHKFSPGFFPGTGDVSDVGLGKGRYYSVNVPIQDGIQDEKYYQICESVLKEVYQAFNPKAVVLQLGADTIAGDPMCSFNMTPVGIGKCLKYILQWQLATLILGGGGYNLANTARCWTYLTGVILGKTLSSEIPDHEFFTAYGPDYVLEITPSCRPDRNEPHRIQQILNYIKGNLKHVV

[5] = biological target: T3, Histone deacetylase (Homo sapiens) (UniProt Q13547+O15379+Q9UBN7+Q92769+Q9UQL6+Q8WUI4+Q9BY41+Q96DB2+P56524+Q9UKV0+Q969S8); experiment: Inhibition of HDAC in human Cal27CisR cells assessed as potentiation of cisplatin-induced cytotoxicity by measuring cisplatin IC50 at 3 to 4 uM pretreated for 48 hrs followed by cisplatin addition and measured after 72 hrs by MTT assay relative to cisplatin alone; type: cell-based; details: dose 3-4 µM, time 120.0 hrs
[6] = biological target: T3, Histone deacetylase (Homo sapiens); experiment: Inhibition of HDAC in human CAL-27 cells assessed as potentiation of cisplatin-induced cytotoxicity by measuring cisplatin IC50 at 3 to 4 uM pretreated for 48 hrs followed by cisplatin addition and measured after 72 hrs by MTT assay relative to cisplatin alone; type: cell-based; details: dose 3-4 µM, time 120.0 hrs
Histone deacetylase [7] = experiment: Inhibition of HDAC in human Cal27CisR cells assessed as potentiation of cisplatin-induced cytotoxicity by measuring cisplatin IC50 at 3 to 4 uM pretreated for 48 hrs followed by cisplatin addition and measured after 72 hrs by MTT assay (reference value: 3.57 uM); type: cell-based
Histone deacetylase [8] = experiment: Inhibition of HDAC in human CAL-27 cells assessed as potentiation of cisplatin-induced cytotoxicity by measuring cisplatin IC50 at 3 to 4 uM pretreated for 48 hrs followed by cisplatin addition and measured after 72 hrs by MTT assay (reference value: 3.57 uM); type: cell-based
[9] = biological target: T4, Protein deacetylase HDAC6 (Homo sapiens) (UniProt Q9UBN7); experiment: Inhibition of HDAC6 in human CAL-27 cells assessed as accumulation of acetylated alpha-tubulin at 1 uM for 24 hrs by Western blot analysis; type: cell-based
T4 sequence (whole entry): T1 sequence (Q9UBN7 whole entry)

[10] = biological target: T3, Histone deacetylase (Homo sapiens); experiment: Inhibition of HDAC in human Cal27CisR cells assessed as potentiation of cisplatin-induced cytotoxicity by measuring fold reduction in cisplatin IC50 at 0.3 to 0.5 uM pretreated for 48 hrs followed by cisplatin addition and measured after 72 hrs by MTT assay relative to cisplatin alone; type: cell-based; details: dose 0.3-0.5 µM, time 120.0 hrs
[11] = biological target: T3, Histone deacetylase (Homo sapiens); experiment: Inhibition of HDAC in human CAL-27 cells assessed as potentiation of cisplatin-induced cytotoxicity by measuring fold reduction in cisplatin IC50 at 0.3 to 0.5 uM pretreated for 48 hrs followed by cisplatin addition and measured after 72 hrs by MTT assay relative to cisplatin alone; type: cell-based; details: dose 0.3-0.5 µM, time 120.0 hrs
Histone deacetylase [12] = experiment: Inhibition of HDAC in human Cal27CisR cells assessed as potentiation of cisplatin-induced cytotoxicity by measuring cisplatin IC50 at 0.3 to 0.5 uM pretreated for 48 hrs followed by cisplatin addition and measured after 72 hrs by MTT assay (reference value: 3.57 uM); type: cell-based
Histone deacetylase [13] = experiment: Inhibition of HDAC in human CAL-27 cells assessed as potentiation of cisplatin-induced cytotoxicity by measuring cisplatin IC50 at 0.3 to 0.5 uM pretreated for 48 hrs followed by cisplatin addition and measured after 72 hrs by MTT assay (reference value: 3.57 uM); type: cell-based
[14] = biological target: T4, Protein deacetylase HDAC6 (Homo sapiens); experiment: Inhibition of HDAC6 in human CAL-27 cells assessed as accumulation of acetylated alpha-tubulin at 5 uM for 24 hrs by Western blot analysis; type: cell-based

Chain of Histone deacetylase 4 (P56524 whole entry, the tested form may be a part): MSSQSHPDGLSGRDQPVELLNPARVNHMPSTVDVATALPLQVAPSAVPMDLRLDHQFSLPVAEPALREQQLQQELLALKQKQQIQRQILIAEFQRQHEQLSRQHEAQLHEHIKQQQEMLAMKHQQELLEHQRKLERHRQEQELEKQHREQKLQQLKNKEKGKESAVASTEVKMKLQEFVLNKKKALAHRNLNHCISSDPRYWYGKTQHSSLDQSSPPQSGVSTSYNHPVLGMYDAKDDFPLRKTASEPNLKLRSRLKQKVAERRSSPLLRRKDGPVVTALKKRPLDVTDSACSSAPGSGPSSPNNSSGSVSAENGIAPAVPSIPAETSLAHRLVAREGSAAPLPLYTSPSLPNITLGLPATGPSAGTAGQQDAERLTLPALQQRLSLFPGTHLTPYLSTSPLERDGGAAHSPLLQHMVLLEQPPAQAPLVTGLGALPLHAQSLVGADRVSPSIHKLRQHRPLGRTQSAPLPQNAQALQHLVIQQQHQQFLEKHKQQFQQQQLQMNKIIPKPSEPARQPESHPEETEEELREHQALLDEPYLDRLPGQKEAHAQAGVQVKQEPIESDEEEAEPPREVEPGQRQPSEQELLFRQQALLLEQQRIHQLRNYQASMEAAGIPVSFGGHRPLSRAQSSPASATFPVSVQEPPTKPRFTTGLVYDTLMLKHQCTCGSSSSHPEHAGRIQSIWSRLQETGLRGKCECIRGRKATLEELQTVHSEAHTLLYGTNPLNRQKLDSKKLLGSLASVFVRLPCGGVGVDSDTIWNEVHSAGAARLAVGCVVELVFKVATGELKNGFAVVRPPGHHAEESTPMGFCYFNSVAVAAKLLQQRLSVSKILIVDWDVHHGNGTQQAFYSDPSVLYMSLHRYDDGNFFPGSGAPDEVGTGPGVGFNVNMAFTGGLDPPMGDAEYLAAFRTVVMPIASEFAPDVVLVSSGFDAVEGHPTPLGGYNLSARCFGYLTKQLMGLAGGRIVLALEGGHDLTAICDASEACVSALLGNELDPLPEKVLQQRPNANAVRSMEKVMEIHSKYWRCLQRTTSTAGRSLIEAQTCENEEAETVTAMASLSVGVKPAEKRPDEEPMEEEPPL
Chain of Histone deacetylase 2 (Q92769 whole entry, the tested form may be a part): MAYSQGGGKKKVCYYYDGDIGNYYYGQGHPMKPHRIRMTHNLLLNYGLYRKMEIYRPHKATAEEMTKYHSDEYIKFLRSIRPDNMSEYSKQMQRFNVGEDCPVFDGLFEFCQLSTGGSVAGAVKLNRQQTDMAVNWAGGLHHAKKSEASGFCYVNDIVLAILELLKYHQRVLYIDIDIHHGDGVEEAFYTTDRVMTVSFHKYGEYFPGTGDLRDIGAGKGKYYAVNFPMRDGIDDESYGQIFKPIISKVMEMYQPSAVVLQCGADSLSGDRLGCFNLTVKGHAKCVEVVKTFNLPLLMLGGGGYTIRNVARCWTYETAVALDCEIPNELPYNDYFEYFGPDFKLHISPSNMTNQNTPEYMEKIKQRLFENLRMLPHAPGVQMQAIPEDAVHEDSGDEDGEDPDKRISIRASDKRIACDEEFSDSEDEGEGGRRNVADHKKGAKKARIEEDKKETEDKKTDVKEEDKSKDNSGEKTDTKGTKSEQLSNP

O=C(CCCCCONC(=O)c1cc2ccccc2s1)NO
IC50 (Histone deacetylase [1]): 1.58 µM
IC50 (Histone deacetylase [2]): 2.25 µM
IC50 (A2780): 4.88 µM
IC50 (CAL-27): 0.5 µM

O=C(CCCCCCNC(=O)c1cnc(N(c2ccccc2)c2ccccc2)nc1)NO [RICOLINOSTAT]
IC50 [3]: 0.902 µM
IC50 (HL-60): > 10 µM

O=C(CCCCCONC(=O)c1nc2ccccc2[nH]1)NO
IC50 (Histone deacetylase [1]): 9.08 µM
IC50 (Histone deacetylase [2]): 4.17 µM
IC50 (A2780): > 100 µM
IC50 (CAL-27): 58.2 µM

O=C(CCCCCONC(=O)Cc1ccc2ccccc2c1)NO
IC50 (Histone deacetylase [1]): 3.71 µM
IC50 (Histone deacetylase [2]): 1.72 µM
IC50 (A2780): 6.28 µM
IC50 (CAL-27): 3.57 µM

O=C(CCCCCONC(=O)c1cccc2ccccc12)NO
IC50 (Histone deacetylase [1]): 2.39 µM
IC50 (Histone deacetylase [2]): 1.89 µM
IC50 (A2780): 7.6 µM
IC50 (CAL-27): 4.2 µM

O=C(CCCCCONC(=O)c1c[nH]c2ccccc12)NO
IC50 (Histone deacetylase [1]): 1.36 µM
IC50 (Histone deacetylase [2]): 0.81 µM
IC50 (A2780): 7.8 µM
IC50 (CAL-27): 1.7 µM

O=C(CCCCCONC(=O)c1[nH]nc2ccccc12)NO
IC50 (Histone deacetylase [1]): 0.71 µM
IC50 (Histone deacetylase [2]): 0.43 µM
IC50 (A2780): 7.6 µM
IC50 (CAL-27): 1.8 µM

O=C(CCCCCONC(=O)c1ccnc2ccccc12)NO
IC50 (Histone deacetylase [1]): 7.68 µM
IC50 (Histone deacetylase [2]): 5.97 µM
IC50 (A2780): 70 µM
IC50 (CAL-27): 11.9 µM

CC(C)(C)OC(=O)Nc1ccc(-c2cc(C(=O)NCCCCCCC(=O)NO)no2)cc1
IC50 [3]: 0.109 µM
IC50 (HL-60): 0.594 µM

O=C(CCCCCONC(=O)c1cccc2[nH]ccc12)NO
IC50 (Histone deacetylase [1]): 0.74 µM
IC50 (Histone deacetylase [2]): 0.48 µM
IC50 (A2780): 5.3 µM
IC50 (CAL-27): 1.2 µM

O=C(CCCCCONC(=O)c1ccc2cc[nH]c2c1)NO
IC50 (Histone deacetylase [1]): 0.6 µM
IC50 (Histone deacetylase [2]): 0.4 µM
IC50 (A2780): 11.3 µM
IC50 (CAL-27): 4.3 µM

O=C(CCCCCONC(=O)c1ccc2[nH]ccc2c1)NO
IC50 (Histone deacetylase [1]): 0.85 µM
IC50 (Histone deacetylase [2]): 0.45 µM
IC50 (A2780): 7.5 µM
IC50 (CAL-27): 1.3 µM

O=C(CCCCCONC(=O)c1cc2ccccc2o1)NO
IC50 (Histone deacetylase [1]): 1.71 µM
IC50 (Histone deacetylase [2]): 1.99 µM
IC50 (A2780): 5.56 µM
IC50 (CAL-27): 0.78 µM

O=C(CCCCCONC(=O)c1cccc2cc[nH]c12)NO
IC50 (Histone deacetylase [1]): 0.64 µM
IC50 (Histone deacetylase [2]): 0.46 µM
IC50 (A2780): 1 µM
IC50 (CAL-27): 1 µM

O=C(CCCCCONC(=O)c1cnc2ccccc2n1)NO
IC50 (Histone deacetylase [1]): 0.19 µM
IC50 (Histone deacetylase [2]): 0.49 µM
IC50 (A2780): 7.7 µM
IC50 (CAL-27): 0.8 µM
IC50 (Histone deacetylase 2): 0.044 µM
IC50 (Histone deacetylase 4): 60.8 µM
IC50 [4]: 0.018 µM
IC50 (Histone deacetylase 8): 7.95 µM
Ratio IC50 [5]: 2.6
Ratio IC50 [6]: 1.23
IC50 (Histone deacetylase [7]): 18.7 µM
IC50 (Histone deacetylase [8]): 2.9 µM

Nc1ccccc1NC(=O)c1ccc(CNC(=O)OCc2cccnc2)cc1
inhibition [9]: inactive

O=C(CCCCCONC(=O)c1ccc2ccccc2c1)NO
IC50 (Histone deacetylase [1]): 0.35 µM
IC50 (Histone deacetylase [2]): 0.1 µM
IC50 (A2780): 1 µM
IC50 (CAL-27): 0.18 µM
IC50 (Histone deacetylase 2): 0.041 µM
IC50 (Histone deacetylase 4): 51.8 µM
IC50 [4]: 0.011 µM
IC50 (Histone deacetylase 8): 3.79 µM
Ratio IC50 [10]: 5.09
Ratio IC50 [11]: 1.54
IC50 (Histone deacetylase [12]): 9.53 µM
IC50 (Histone deacetylase [13]): 2.32 µM
inhibition [14]: Active

O=C(CCCCCONC(=O)c1nc2ccccc2s1)NO
IC50 (Histone deacetylase [1]): 2.7 µM
IC50 (Histone deacetylase [2]): 3.16 µM
IC50 (A2780): 21.8 µM
IC50 (CAL-27): 6.33 µM
